Results published in US12721823B2, “Methods and compositions for treatment of low circulating testosterone conditions” (University of Florida Research Foundation, Inc., priority 2021, dated 2026).

Assays:
Type in all cases: in vivo, rat
KCC2 = experiment: Immunofluorescence of cell surface KCC2 expression in the PVN of the hypothalamus; conditions: G1 male rats; 1 h after last exposure on P60; vs control
Experimental: Rats were anesthetized with sevoflurane and transcardially perfused with saline, followed by 4% paraformaldehyde (PFA) in 0.1 M phosphate buffer. The brains were collected and fixed in the 4% PFA overnight and then dehydrated in 30% sucrose solution in PBS at 4° C. for 2 days. The brains were cut into 18-um-thick coronal sections using a cryostat. After blocking with 10% norm goat serum for 1 h at room temperature, the slices were incubated with the primary antibody (rabbit anti-KCC2, 1:500; MilliporeSigma, Burlington, MA) in 10% norm goat serum at 4° C. overnight. After washing with PBS for 3×5 min, the slices were exposed to the secondary antibody, Alexafluor 549 goat anti-rabbit (Invitrogen, Carlsbad, CA). […] The immunofluorescence intensity of the KCC2-immunoreactive cells was measured using ImageJ software [National Institutes of Health (NIH)]. Three images from the PVN of the hypothalamus of each animal were taken and the average intensity values were calculated to use for statistical analysis. […] (FIGS. 2C-2F) Representative confocal images and quantitative analysis of the KCC2 immunoreactivity in the paraventricular nucleus (PVN) of the hypothalamus of the control and sevoflurane-exposed male (FIGS. 2C, 2E) and female (FIGS. 2D, 2F) rats. […]

Sprague-Dawley rats = experiment: Elevated plus maze (EPM)
Source text: Sixty-four G1 rats (32 control and 32 sevoflurane exposed) and 122 G2 rats, which were not exposed to sevoflurane anesthesia and were subjected to animal facility rearing only, were studied. The G1 rats were sequentially evaluated in the EPM starting on ~P125, PPI of the acoustic startle response on ~P135 and MWM starting ~on P145 (FIG. 1). One half of these animals were sacrificed on ≥P160 to collect trunk blood, brain and testis and ovarian tissues for further analyses. The rest of these animals were physically restrained for 30 min on ≥P160 to measure corticosterone responses, followed by collection of tissue samples (as above) for further analyses. The G2 rats were evaluated in the EPM starting on P60 and PPI of startle on P70 (FIG. 1). One half of these animals were sacrificed on ≥P95 to collect trunk blood and brain tissue samples for further analyses, and the rest of these animals were tested for the corticosterone responses to physical restraint for 30 min on ≥P95 before collecting the trunk blood and brain tissue samples.
The EPM studies were performed using an EPM apparatus and BIO-EPM 3C video tracking software (EB Instruments, Pinellas Park, FL) during the light phase of the dark-light cycle as previously described by our laboratory.^5-7 If a fall occurred, the animal was removed from the study (one G1 male rat was removed from the study for this reason).

Kcc2 gene promoter = experiment: Bisulfite sequencing of CpG sites in the Kcc2 gene promoter; conditions: for DNA methylation in the Kcc2 gene promoter: vs con-M*con-F; for methylation of CpG sites in the Kcc2 gene promoter: vs control
Experimental: Genomic DNA was extracted from the sperm pellet and ovaries of adult G1 rats and from hippocampal and hypothalamic tissues of G2 rats using the DNeasy Blood and Tissue kit (Qiagen, Hilden, Germany). The sodium bisulfite conversion was performed with EZ DNA Methylation kits (Zymo Research, Irvine, CA) following the manufacturer's instructions. The primers (Kcc2: forward: […] (SEQ ID NO: 1); reverse: […] (SEQ ID NO: 2) were designed for the bisulfite-converted DNA sequences, using previously published sequences. 5 PCR amplification was performed with HotStar Taq (Qiagen, Hilden, Germany). Amplicons were cloned into pCR4-TOPO vector with the TOPO TA cloning kit for sequencing (Life Technologies, Carlsbad, CA). Miniprep was performed on each positive clone using ZR Plasmid Miniprep kit (Zymo Research, Irvine, CA). Sanger sequencing was done by Genewiz (South Plainfield, NJ, USA) using M13R primers. The DNA methylation status of all CpG sites was analyzed using Benchling Molecular Biology 2.0 Software (Benchling, San Francisco, CA). The bisulfite sequencing analysis of the Kcc2 DNA was performed only in G2 male progeny of con-M*con-F and sevo-M*sevo-F matings.

[1] = G1 male rats, more than two months after exposure, vs control
[2] = G2 females, all groups of parental exposure
[3] = G2 male offspring of both exposed parents

EPM parameters (time in open arms, number of crossings, distance traveled) (Sprague-Dawley rats; G1 female rats, vs control): no significant between-subjects effect
distance traveled, EPM (Sprague-Dawley rats; [1]): did not differ
number of crossings, EPM (Sprague-Dawley rats; [1]): did not differ
time spent in open arms, EPM (Sprague-Dawley rats; [1]): spent less time in open arms
distances traveled, EPM (Sprague-Dawley rats; [2]): similar
number of crossings, EPM (Sprague-Dawley rats; [2]): similar
time spent in open arms, EPM (Sprague-Dawley rats; [2]): similar
distance traveled, EPM (Sprague-Dawley rats; [3]): shorter distances
number of crossings, EPM (Sprague-Dawley rats; [3]): fewer crossings
time spent in open arms, EPM (Sprague-Dawley rats; G2 male progeny of exposed fathers and exposed mothers, vs offspring of control parents): spent less time in open arms
time spent in open arms, EPM (Sprague-Dawley rats; G2 male progeny of sevoflurane exposed fathers and unexposed mothers, vs offspring of control parents): spent less time in open arms
time spent in open arms, EPM (Sprague-Dawley rats; G2 male progeny of unexposed fathers and exposed mothers, vs offspring of control parents): spent less time in open arms
SMILES: FCOC(C(F)(F)F)C(F)(F)F [sevoflurane, 1,1,1,3,3,3-hexafluoro-2-(fluoromethoxy)propane]
cell surface KCC2 expression (KCC2 density) in the PVN of the hypothalamus (KCC2): reductions in KCC2 density
DNA methylation in the Kcc2 gene promoter (Kcc2 gene promoter; hippocampus of G2 male progeny of both exposed parents, CpG site 1): increased DNA methylation
DNA methylation in the Kcc2 gene promoter (Kcc2 gene promoter; hippocampus of G2 male progeny of both exposed parents, CpG site 2): increased DNA methylation
DNA methylation in the Kcc2 gene promoter (Kcc2 gene promoter; hippocampus of G2 male progeny of both exposed parents, CpG site 3): increased DNA methylation
DNA methylation in the Kcc2 gene promoter (Kcc2 gene promoter; hypothalamus of G2 male progeny of both exposed parents, CpG site 1): increased DNA methylation
DNA methylation in the Kcc2 gene promoter (Kcc2 gene promoter; hypothalamus of G2 male progeny of both exposed parents, CpG site 2): increased DNA methylation
DNA methylation in the Kcc2 gene promoter (Kcc2 gene promoter; hypothalamus of G2 male progeny of both exposed parents, CpG site 3): increased DNA methylation
methylation of CpG sites in the Kcc2 gene promoter (Kcc2 gene promoter; ovarian tissue of G1 female rats, CpG site 1): increased methylation
methylation of CpG sites in the Kcc2 gene promoter (Kcc2 gene promoter; ovarian tissue of G1 female rats, CpG site 2): increased methylation
methylation of CpG sites in the Kcc2 gene promoter (Kcc2 gene promoter; sperm of G1 male rats, CpG site 1): increased methylation
methylation of CpG sites in the Kcc2 gene promoter (Kcc2 gene promoter; sperm of G1 male rats, CpG site 2): increased methylation
